Reference: patent US8030306B2, “Azabicyclic heterocycles as cannabinoid receptor modulators” (Bristol-Myers Squibb Company, priority 2006, dated 2011)
≈ marks a conversion by molar mass, not a printed value.

Columns and labels:
[1] = Canine half-life assay (IV pharmacokinetics); type: in vivo; details: dog, plasma; male beagle dogs, IV 1 mg/kg; unit not given in table (text gives hrs)
Experimental: Functional canine half-life of test compounds was determined by methods […] to one of ordinary skill in the art. For example, pharmacokinetic parameters were determined in male beagle dogs (weight of 12.4, 13.2 and 8.9 kg). The intravenous (“IV”) solution dose studies were conducted in a crossover design (n=3). Animals with vascular access ports, chronically implanted in the femoral vein, were used for administration of the dose. The animals had free access to water and were conscious and unrestrained throughout the study. In the IV study, drug was infused at a dose of 1 mg/kg (1 mL/kg) in 50% PEG-400, 10% ethanol and 40% water over 10 minutes. Serial blood samples were collected from the jugular vein at 0.167, 0.25, 0.5, 0.75, 1, 2, 4, 6, 8, 24, 48 and 72 hours post-dose. Plasma was prepared immediately, and the samples were frozen on dry ice and stored at −20° C. until analysis. All samples were analyzed for the concentration of the parent drug by LC-MS/MS analysis.
The pharmacokinetic parameters were calculated by Non-Compartmental Analysis using the […]™ software program (version 4.2, InnaPhase Co., Philadelphia, Pa.). The AUCO-Tlast and AUCtot values were calculated using the trapezoidal summations. The elimination half-life (T1/2) was calculated from the terminal, linear portion of the plasma concentration-time data curve. The total clearance (CLplasma), mean residence time (MRT), and the steady state volume of distribution (Vss) were also calculated after intravenous administration. The total blood clearance (CLblood) was calculated by using the total plasma clearance and the blood to plasma concentration ratio. All results are expressed as mean±SD, unless specified otherwise.

[2] = Thermodynamic equilibrium aqueous solubility assay; type: physicochemical; details: thermodynamic from solid, room temperature, default 50 mM pH 6.5 potassium phosphate buffer
Experimental: • Assay Name: Thermodynamic Equilibrium Aqueous Solubility Assay • Description: The purpose of this assay is to provide a medium throughput estimation of the thermodynamic equilibrium aqueous solubility of compounds at room temperature. Solvent system default is 50 mM pH 6.5 potassium phosphate buffer. Detailed Protocol:
Standards Preparation—The calibration standard is prepared by accurately weighing 0.5-0.7 mg of sample in 5 ml of methanol. […] A serial dilution is performed on the standard solution.
The final saturated solution is prepared by adding 1.0 ml of the appropriate aqueous solvent to the remaining portion of material (1 dram submission vial). The solution is sonicated and vortexed for ˜30 seconds. The sample solution is placed on an orbiter that continually agitates the sample solutions for 15-24 hours at room temperature. The final saturated solution is then transferred to a 1.5 ml eppendorf tube and centrifuged for ˜2 min. at 10000 rpms. The supernatant from the saturated solution is transferred to a glass HPLC-suitable vial without filtering since the […] is insufficient to saturate the syringe filter. This sample preparation procedure nullifies the effects of non-specific binding to the filtering apparatus.
The standards and sample are analyzed by HPLC using either UV/Vis diode array or variable wavelength detection. Typical quantitation wavelengths are 210 or 254 nm; detection wavelength can be individually customized to optimize sensitivity. In addition to UV detection, mass spectrometry detection is recommended if available in order to confirm the identity of the HPLC-UV peak of interest.
Dilutions of aqueous test solutions are performed if HPLC-UV peak is beyond the linear portion of the standard calibration curve. Typical dilutions include 100 ul/900 ul (×10) or 500 ul/500 ul (2 ×), as required.

recombinant human CB-1 = target: T1, recombinant human CB-1 (Homo sapiens, UniProt P21554); test: Cannabinoid receptor binding assay (radioligand 3H-CP-55,940, CHO-CB-1 membranes); details: membranes of CHO cells over-expressing recombinant human CB-1, 2 nM 3H-CP-55,940, read-out: CB1 Ki
T1 construct: expressed in transfected cells; host or cells: CHO cells (CHO-CB-1), membrane preparation
T1 sequence (P21554 whole entry): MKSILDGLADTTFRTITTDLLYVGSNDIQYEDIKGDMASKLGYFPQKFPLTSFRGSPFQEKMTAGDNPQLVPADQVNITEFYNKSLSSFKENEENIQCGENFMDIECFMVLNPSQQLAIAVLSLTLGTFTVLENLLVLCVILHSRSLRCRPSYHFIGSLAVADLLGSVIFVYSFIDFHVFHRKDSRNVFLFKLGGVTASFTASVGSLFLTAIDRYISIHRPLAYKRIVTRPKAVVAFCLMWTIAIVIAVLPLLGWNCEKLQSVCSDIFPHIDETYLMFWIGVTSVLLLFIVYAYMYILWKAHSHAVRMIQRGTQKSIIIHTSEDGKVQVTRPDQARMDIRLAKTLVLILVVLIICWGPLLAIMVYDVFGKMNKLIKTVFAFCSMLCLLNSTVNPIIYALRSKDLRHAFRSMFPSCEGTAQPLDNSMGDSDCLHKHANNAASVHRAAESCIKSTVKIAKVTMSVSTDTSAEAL
Experimental: Radioligand binding studies were conducted in membranes prepared from Chinese Hamster Ovary (CHO) cells that over-express recombinant human CB-1 (CHO-CB-1 cells). Total assay volume for the binding studies was 100 μl. 5 μg of membranes were brought up to a final volume of 95 μl with Binding Buffer (25 mM HEPES, 150 mM NaCl, 2.5 mM CaCl2, 1 mM MgCl2, 0.25% BSA). The diluted membranes were preincubated with a compound or DMSO vehicle. The binding reaction was initiated by the addition of 2 nM final ^3H-CP-55,940 (120 Ci/mmol) and proceeded for 2.5 hours at room temperature. The binding reaction was terminated by transferring the reaction to GF/B 96 well plates (presoaked with 0.3% polyethylenimine) using a Packard Cell Harvester. The filter was washed with 0.25 ×PBS, 30 μl MicroScint was added per well, and the bound radiolabel was quantitated by scintillation counting on a Packard TopCount Scintillation Counter. The CB-2 radioligand binding assay was conducted identically except that the membranes from CHO-CB-2 cells were used.

[3] = 16 week trial period, Phase IIb; cited from earlier work

Row | SMILES | half-life [1] [h] | solubility [2] [µg/mL] | Ki (recombinant human CB-1) [nM] | body weight in human subjects [3]
1 | COCc1nnc2c(-c3ccc(Cl)cc3)c(-c3ccc(C#N)cc3)c(=O)n(Cc3ccc(C(F)(F)F)nc3C)n12 [Example 2, 4-(8-(4-chlorophenyl)-3-(methoxymethyl)-5-((2-methyl-6-(trifluoromethyl)pyridin-3-yl)methyl)-6-oxo-5,6-dihydro-[1,2,4]triazolo[4,3-b]pyridazin-7-yl)benzonitrile] | 23 | 6 (≈ 10.6 µM) | 5 | 
2 | Cc1nc(C(F)(F)F)ccc1Cn1c(=O)c(-c2ccc(C#N)cc2)c(-c2ccc(Cl)cc2)c2nnc(CO)n21 [Example 3, 4-(8-(4-chlorophenyl)-3-(hydroxymethyl)-5-((2-methyl-6-(trifluoromethyl)pyridin-3-yl)methyl)-6-oxo-5,6-dihydro-[1,2,4]triazolo[4,3-b]pyridazin-7-yl)benzonitrile] | 20 | 15 (≈ 27.2 µM) | 3 | 
3 | Cc1nc(C(F)(F)F)ccc1Cn1c(=O)c(-c2ccc(C#N)cc2)c(-c2ccc(Cl)cc2)c2nnc([C@@H](C)O)n21 [Example 4, (R)-4-(8-(4-chlorophenyl)-3-(1-hydroxyethyl)-5-((2-methyl-6-(trifluoromethyl)pyridin-3-yl)methyl)-6-oxo-5,6-dihydro-[1,2,4]triazolo[4,3-b]pyridazin-7-yl)benzonitrile] |  | 10 (≈ 17.7 µM) | 15 | 
4 | Cc1nc(C(F)(F)F)ccc1Cn1c(=O)c(-c2ccc(C#N)cc2)c(-c2ccc(Cl)cc2)c2nnc([C@H](C)O)n21 [Example 5, (S)-4-(8-(4-chlorophenyl)-3-(1-hydroxyethyl)-5-((2-methyl-6-(trifluoromethyl)pyridin-3-yl)methyl)-6-oxo-5,6-dihydro-[1,2,4]triazolo[4,3-b]pyridazin-7-yl)benzonitrile] |  |  | 10 | 
5 | Cc1nc(C(F)(F)F)ccc1Cn1c(=O)c(-c2ccc(C#N)cc2)c(-c2ccc(Cl)cc2)c2nnc(CN(C)C)n21 [Example 10, 4-(8-(4-chlorophenyl)-3-((dimethylamino)methyl)-5-((2-methyl-6-(trifluoromethyl)pyridin-3-yl)methyl)-6-oxo-5,6-dihydro-[1,2,4]triazolo[4,3-b]pyridazin-7-yl)benzonitrile] |  | 2 (≈ 3.46 µM) | 13 | 
6 | Cc1nc(C(F)(F)F)ccc1Cn1c(=O)c(-c2ccc(C#N)cc2)c(-c2ccc(Cl)cc2)c2nnc(CN)n21 [Example 11, 4-(3-(aminomethyl)-8-(4-chlorophenyl)-5-((2-methyl-6-(trifluoromethyl)pyridin-3-yl)methyl)-6-oxo-5,6-dihydro-[1,2,4]triazolo[4,3-b]pyridazin-7-yl)benzonitrile] |  |  | 11 | 
7 | Cc1nc(C(F)(F)F)ccc1Cn1c(=O)c(-c2ccccc2)c(-c2ccc(Cl)cc2)c2nnc(CN)n21 [Example 12] |  | 101 (≈ 192 µM) | 8 | 
8 | Cc1ccc(-c2c(-c3ccc(Cl)cc3)c3nnc(CN)n3n(Cc3ccc(C(F)(F)F)nc3C)c2=O)cc1 [Example 13] |  | 20 (≈ 37.1 µM) | 3 | 
9 | CNCc1nnc2c(-c3ccc(Cl)cc3)c(-c3ccccc3)c(=O)n(Cc3ccc(C(F)(F)F)nc3C)n12 [Example 14] |  | 25 (≈ 46.4 µM) | 10 | 
10 | Cc1nc(C(F)(F)F)ccc1Cn1c(=O)c(-c2ccc(Cl)cc2)c(-c2ccc(Cl)cc2)c2nnc(CN)n21 [Example 15] |  | 16 (≈ 28.6 µM) | 12 | 
11 | Cc1ccc(-c2c(-c3ccc(Cl)cc3)c3nnc([C@H](C)N)n3n(Cc3ccc(C(F)(F)F)nc3C)c2=O)cc1 [Example 16] |  | 38 (≈ 68.7 µM) | 6 | 
12 | Cc1ccc(-c2c(-c3ccc(Cl)cc3)c(=O)n(Cc3ccc(C(F)(F)F)nc3C)n3c(CN)nnc23)cc1 [Example 17] |  | 31 (≈ 57.5 µM) | 20 | 
13 | Cc1ccc(-c2c(-c3ccc(Cl)cc3)c(=O)n(Cc3ccc(C(F)(F)F)nc3C)n3c([C@H](C)O)nnc23)cc1 [Example 18, (S)-7-(4-chlorophenyl)-3-(1-hydroxyethyl)-5-((2-methyl-6-(trifluoromethyl)pyridin-3-yl)methyl)-8-p-tolyl-[1,2,4]triazolo[4,3-b]pyridazin-6(5H)-one] |  | 7 (≈ 12.6 µM) | 14 | 
14 | Cc1ccc(-c2c(-c3ccc(Cl)cc3)c3nnc([C@H](C)O)n3n(Cc3ccc(C(F)(F)F)nc3C)c2=O)cc1 [Example 19, (S)-8-(4-chlorophenyl)-3-(1-hydroxyethyl)-5-((2-methyl-6-(trifluoromethyl)pyridin-3-yl)methyl)-7-p-tolyl-[1,2,4]triazolo[4,3-b]pyridazin-6(5H)-one] |  | 7 (≈ 12.6 µM) | 5 | 
15 | Cc1nc(C(F)(F)F)ccc1Cn1c(=O)c(-c2ccccc2)c(-c2ccc(Cl)cc2)c2nnc([C@H](C)O)n21 [Example 20, (S)-8-(4-chlorophenyl)-3-(1-hydroxyethyl)-5-((2-methyl-6-(trifluoromethyl)pyridin-3-yl)methyl)-7-phenyl-[1,2,4]triazolo[4,3-b]pyridazin-6(5H)-one] |  | 22 (≈ 40.7 µM) | 6 | 
16 | Cc1nc(C(F)(F)F)ccc1Cn1c(=O)c(-c2ccccc2)c(-c2ccc(Cl)cc2)c2nnc([C@@H](C)O)n21 [Example 21, (R)-8-(4-chlorophenyl)-3-(1-hydroxyethyl)-5-((2-methyl-6-(trifluoromethyl)pyridin-3-yl)methyl)-7-phenyl-[1,2,4]triazolo[4,3-b]pyridazin-6(5H)-one] |  | 31 (≈ 57.4 µM) | 27 | 
17 | COCc1nnc2c(-c3ccc(Cl)cc3)c(-c3ccccc3)c(=O)n(Cc3ccc(C(F)(F)F)nc3C)n12 [Example 22, 8-(4-chlorophenyl)-3-(methoxymethyl)-5-((2-methyl-6-(trifluoromethyl)pyridin-3-yl)methyl)-7-phenyl-[1,2,4]triazolo[4,3-b]pyridazin-6(5H)-one] | 39 | 4 (≈ 7.41 µM) | 3 | 
18 | Cc1c(C(=O)NN2CCCCC2)nn(-c2ccc(Cl)cc2Cl)c1-c1ccc(Cl)cc1 [SR-141716] |  |  |  | dose-dependently reduced body weight
